According to US9234025B2, “Extracellular allosteric inhibitor binding domain from a tyrosine kinase receptor” (SANOFI, priority 2009, dated 2016):

Assays:
PANC02 cells = assay: PANC02 migration; assay type: cell-based; conditions: 100 nM SSR; 100 ng/ml FGF7 with or without VEGF; FGFR2-IIIb
Procedure: Cell proliferation was analysed on exponentially growing cells that were starved for 16 hours in 100 μl RPMI 1640 (Invitrogen, 32404-014) with 0.2% FBS (Hyclone, SH30070.03), 2 mM glutamine, MEM non-essential amino-acid 1× (Gibco, 11140-035), MEM sodium pyruvate 1× (Gibco, 11360-039) and seeded at 4,000 cells/well in 96-well microplates. After exposure to mitogens and/or SSR for 72 hours, cell proliferation was assessed with the use of the CellTiter 96 AQueous One Solution Cell Proliferation Assay (Promega, Madison, Wis., USA) according to manufacturer's instructions. Cell migration was assessed by a modified Boyden chamber assay, by using 24-well inserts containing 8 μm pore size transwell permeable supports with a polycarbonate membrane (Costar, Corning Inc.). Exponentially growing cells were starved in 0.2% FBS containing medium for 16 hours and resuspended at 5×10^5 cells/ml in the same low serum medium. 100 μl of the cell suspension were seeded in the upper chamber, while chemoattractants and/or SSR were placed in the lower chamber. 10% FBS containing medium was used a positive control. After 6 hours incubation at 37° C., cells on the upper side of the membrane were scraped using a cotton swab, while migrated cells on the lower surface were fixed with 4% formaldehyde and nuclei stained with DAPI for quantification.

[1] = target: T1, ECD of FGFR1 (FGFR1^∂123) (Homo sapiens, UniProt P11362); assay: STD-NMR / 1D-NMR binding assay, FGFR1 ECD
T1 construct: (ECD; amino acids: 39-358) of the human FGFR1 gene (P11362); His-tag followed by TEV protease cleavage site (N); made in house; host or cells: E. coli BL21(DE3)
Procedure: The extracellular domain (ECD; amino acids: 39-358) of the human FGFR1 gene (P11362) was PCR amplified and cloned into E. coli vector pETTEV (with a N-terminal His-tag followed by a TEV protease cleavage site), using NdeI and BamHI restriction sites. For protein production, the resulting plasmid (pET FGFR1 D1D2D3) was transformed into E. coli BL21(DE3) (Novagene). Cells were grown at 37° C. until the OD600 reached 0.6 and recombinant protein production was induced by adding 1 mM IPTG (isopropyl-b-D-thiogalactopyranoside). After 4 hours induction, cells were harvested and stored at −80° C. until usage. The cell pellet (1 L culture) was thawed and resuspended in 50 ml buffer 1 (20 mM Tris/HCl, pH 7.5, 200 mM NaCl) containing lysozyme (2 mg), and 40 U benzonase (Merck). […] Complex formation was analyzed by size exclusion chromatography and subsequent analysis on SDS-PAGE.
All STD- and 1D-NMR experiments were carried out on a BRUKER three-channel DRX600 and on a BRUKER four-channel DRX800 spectrometer at the standard temperature of 298 K and were referenced to the internal standard 3-Trimethyl-2,2,3,3-tetradeuteropropionate-sodium salt (TSP). […] For protein ligand 1D STD NMR measurements spectra were recorded with 1 mM ligand SSR128129E (100 mM DMSO stock solution) and […] protein with weak 2s RF irradiation on separated protein methyl resonances. […]

FGFR2^∂23 = target: T2, FGFR2^∂23 (Homo sapiens, UniProt P21802); assay: isothermal titration calorimetry (ITC), FGFR2; assay type: binding
T2 construct: FGFR2^∂23 (consisting of domain D2 and 3); made in house
Procedure: All calorimetric experiments were performed at 30° C. with a VP-ITC titration calorimeter (MicroCal Inc., Northampton, Mass.) as previously described^45. Titrations involved the addition of 10 μL aliquots of 1.25 mM SSR via a rotating stirrer-syringe to the solution cell containing 1.407 mL of the 10-20 μM interacting protein (i.e. FGFR2^∂123, FGFR2^∂23 and its described mutants and subdomains, FGFR3^∂123, FGF1, FGF2 and Follistatin (as negative control) at 4 min intervals. A constant stirring speed of 300 rpm was maintained and data were fitted to the standard noninteracting one site model supplied by MicroCal, with n fixed as 1.0. All measurements were performed in 10 mM HEPES pH7.2, 150 mM NaCl, and proteins were purified as previously described (Pellegrini et al., 2000). Mutagenesis was performed using the ‘site directed mutagenesis kit’ (Stratagene).

FGFR3^∂23 = target: T3, FGFR3^∂23 (Homo sapiens, UniProt P22607); assay: isothermal titration calorimetry (ITC), FGFR3; assay type: binding
T3 construct: two ECD fragments, FGFR2^∂23 (consisting of domain D2 and 3) and FGFR3^∂23; made in house
T3 sequence (P22607 145-365): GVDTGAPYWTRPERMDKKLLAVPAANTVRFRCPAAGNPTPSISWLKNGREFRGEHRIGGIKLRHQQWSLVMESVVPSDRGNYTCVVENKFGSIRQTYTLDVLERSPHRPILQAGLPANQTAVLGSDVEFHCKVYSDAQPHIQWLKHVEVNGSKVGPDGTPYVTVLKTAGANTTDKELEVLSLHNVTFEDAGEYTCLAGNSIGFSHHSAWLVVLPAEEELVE

T1 sequence (P11362 39-358): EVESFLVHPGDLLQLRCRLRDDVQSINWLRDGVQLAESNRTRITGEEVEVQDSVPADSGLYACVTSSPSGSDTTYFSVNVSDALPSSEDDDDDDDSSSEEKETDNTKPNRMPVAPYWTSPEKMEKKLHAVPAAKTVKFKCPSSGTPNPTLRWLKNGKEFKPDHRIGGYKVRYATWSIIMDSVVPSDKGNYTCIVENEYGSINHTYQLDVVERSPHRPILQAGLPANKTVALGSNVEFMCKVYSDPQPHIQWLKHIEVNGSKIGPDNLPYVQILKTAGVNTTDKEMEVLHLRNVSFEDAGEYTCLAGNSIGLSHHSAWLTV
T2 sequence (P21802 148-366 limits assumed): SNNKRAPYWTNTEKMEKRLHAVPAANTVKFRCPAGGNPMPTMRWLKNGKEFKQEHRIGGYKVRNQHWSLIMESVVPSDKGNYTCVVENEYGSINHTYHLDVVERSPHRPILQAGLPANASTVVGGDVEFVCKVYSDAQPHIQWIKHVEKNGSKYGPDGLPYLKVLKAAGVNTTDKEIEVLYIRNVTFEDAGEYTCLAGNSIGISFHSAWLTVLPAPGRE

With `COc1c(C)c(C(=O)c2ccc(N)c(C(=O)[O-])c2)n2ccccc12.[Na+]` [SSR] the “FGF7-induced PANC02 migration” value (PANC02 cells) was “blocked”, the “binding to ECD of FGFR1” value ([1]; STD-NMR, confirmed by 1D-NMR peak broadening) was “bound” and the “STD-NMR signal of SSR to the FGFR with heparin analogue” value ([1]; presence or absence of sucrose octasulphate (SOS)) was “comparable signal”. For the same molecule, the “binding to FGFR2” value (FGFR2^∂23) was “bound” and the “binding to FGFR3” value (FGFR3^∂23) was “bound”.
